Laboratory results taken from patent US20150209315A1 (Cumberland Pharmaceuticals, priority 2009, published 2015).

System: post-operative adult patients
Assay: Example 1: patient self-assessment of pain, VAS with movement
Type: in vivo, human
Set-up: key to VAS Score measured with Movement (median): VAS 0-10: 0 = no pain, 10 = intense pain
Description: Pain was measured by the patient's self-assessment using a Visual Analog Scale (VAS) from 0-10 with 0 being no pain and 10 being intense pain. This was measured both at rest and with movement. […] […] To account for the missing pain assessments, two missing value approaches as described in the statistical analysis plan were used to impute values. To determine the difference in overall pain at differing time-points, the area under the VAS pain curve during the first 24 hours, between 6 and 24 hours and between 12 and 24 hours were analyzed.

CC(C)Cc1ccc(C(C)C(=O)O)cc1 (stereo not drawn) [Ibuprofen, 2-(4-isobutylphenyl) propionic acid]
VAS Score measured with Movement (median) (400 mg, ITT, 33-Hour): 3.8
VAS Score measured with Movement, % Reduction vs Placebo (400 mg, ITT, 33-Hour): 0.0%
VAS Score measured with Movement (median) (400 mg, ITT, 36-Hour): 3.6
VAS Score measured with Movement, % Reduction vs Placebo (400 mg, ITT, 36-Hour): 10.0%
VAS Score measured with Movement (median) (400 mg, ITT, 39-Hour): 3.1
VAS Score measured with Movement (median) (400 mg, ITT, 42-Hour): 3.3
VAS Score measured with Movement, % Reduction vs Placebo (400 mg, ITT, 42-Hour): 2.9%
VAS Score measured with Movement (median) (400 mg, ITT, 45-Hour): 3.3
VAS Score measured with Movement, % Reduction vs Placebo (400 mg, ITT, 45-Hour): −6.5%
VAS Score measured with Movement (median) (400 mg, ITT, 48-Hour): 3.2
VAS Score measured with Movement, % Reduction vs Placebo (400 mg, ITT, 48-Hour): −39.1%
VAS Score measured with Movement (median) (800 mg, EEP, 1-Hour): 7.8
VAS Score measured with Movement, % Reduction vs Placebo (800 mg, EEP, 1-Hour): 2.5%
VAS Score measured with Movement (median) (800 mg, EEP, 2-Hour): 7.0
VAS Score measured with Movement, % Reduction vs Placebo (800 mg, EEP, 2-Hour): 1.4%
VAS Score measured with Movement (median) (800 mg, EEP, 3-Hour): 6.1
VAS Score measured with Movement, % Reduction vs Placebo (800 mg, EEP, 3-Hour): −1.7%
VAS Score measured with Movement (median) (800 mg, EEP, 6-Hour): 5.6
VAS Score measured with Movement, % Reduction vs Placebo (800 mg, EEP, 6-Hour): −12.0%
VAS Score measured with Movement (median) (800 mg, EEP, 9-Hour): 4.8
VAS Score measured with Movement, % Reduction vs Placebo (800 mg, EEP, 9-Hour): 4.0%
VAS Score measured with Movement (median) (800 mg, EEP, 12-Hour): 4.4
VAS Score measured with Movement (median) (800 mg, EEP, 15-Hour): 4.2
VAS Score measured with Movement, % Reduction vs Placebo (800 mg, EEP, 15-Hour): 16.0%
VAS Score measured with Movement (median) (800 mg, EEP, 18-Hour): 4.0
VAS Score measured with Movement, % Reduction vs Placebo (800 mg, EEP, 18-Hour): 20.0%
VAS Score measured with Movement (median) (800 mg, EEP, 21-Hour): 3.7
VAS Score measured with Movement, % Reduction vs Placebo (800 mg, EEP, 21-Hour): 26.0%
VAS Score measured with Movement (median) (800 mg, EEP, 24-Hour): 3.6
VAS Score measured with Movement, % Reduction vs Placebo (800 mg, EEP, 24-Hour): 18.2%
VAS Score measured with Movement (median) (800 mg, EEP, 27-Hour): 3.7
VAS Score measured with Movement, % Reduction vs Placebo (800 mg, EEP, 27-Hour): 17.8%
VAS Score measured with Movement (median) (800 mg, EEP, 30-Hour): 3.6
VAS Score measured with Movement (median) (800 mg, EEP, 33-Hour): 3.6
VAS Score measured with Movement, % Reduction vs Placebo (800 mg, EEP, 33-Hour): 5.3%
VAS Score measured with Movement (median) (800 mg, EEP, 36-Hour): 3.4
VAS Score measured with Movement (median) (800 mg, EEP, 39-Hour): 3.8
VAS Score measured with Movement, % Reduction vs Placebo (800 mg, EEP, 39-Hour): −11.8%
VAS Score measured with Movement (median) (800 mg, EEP, 42-Hour): 3.2
VAS Score measured with Movement, % Reduction vs Placebo (800 mg, EEP, 42-Hour): 8.6%
VAS Score measured with Movement (median) (800 mg, EEP, 45 Hour): 2.8
VAS Score measured with Movement, % Reduction vs Placebo (800 mg, EEP, 45 Hour): 9.7%
VAS Score measured with Movement (median) (800 mg, EEP, 48-Hour): 2.1
VAS Score measured with Movement (median) (800 mg, ITT, 1-Hour): 7.3
VAS Score measured with Movement, % Reduction vs Placebo (800 mg, ITT, 1-Hour): 8.8%
VAS Score measured with Movement (median) (800 mg, ITT, 2-Hour): 6.8
VAS Score measured with Movement, % Reduction vs Placebo (800 mg, ITT, 2-Hour): 6.8%
VAS Score measured with Movement (median) (800 mg, ITT, 3-Hour): 6.0
VAS Score measured with Movement, % Reduction vs Placebo (800 mg, ITT, 3-Hour): 4.8%
VAS Score measured with Movement (median) (800 mg, ITT, 6-Hour): 5.3
VAS Score measured with Movement, % Reduction vs Placebo (800 mg, ITT, 6-Hour): 7.0%
VAS Score measured with Movement (median) (800 mg, ITT, 9-Hour): 4.6
VAS Score measured with Movement (median) (800 mg, ITT, 12-Hour): 4.3
VAS Score measured with Movement, % Reduction vs Placebo (800 mg, ITT, 12-Hour): 14.0%
VAS Score measured with Movement (median) (800 mg, ITT, 15-Hour): 4.2
VAS Score measured with Movement, % Reduction vs Placebo (800 mg, ITT, 15-Hour): 16.0%
VAS Score measured with Movement (median) (800 mg, ITT, 18-Hour): 4.0
VAS Score measured with Movement, % Reduction vs Placebo (800 mg, ITT, 18-Hour): 20.0%
VAS Score measured with Movement (median) (800 mg, ITT, 21-Hour): 3.8
VAS Score measured with Movement, % Reduction vs Placebo (800 mg, ITT, 21-Hour): 22.4%
VAS Score measured with Movement (median) (800 mg, ITT, 24-Hour): 3.7
VAS Score measured with Movement, % Reduction vs Placebo (800 mg, ITT, 24-Hour): 17.8%
VAS Score measured with Movement (median) (800 mg, ITT, 27 Hour): 3.6
VAS Score measured with Movement, % Reduction vs Placebo (800 mg, ITT, 27 Hour): 18.2%
VAS Score measured with Movement (median) (800 mg, ITT, 30-Hour): 3.5
VAS Score measured with Movement (median) (800 mg, ITT, 33-Hour): 3.5
VAS Score measured with Movement, % Reduction vs Placebo (800 mg, ITT, 33-Hour): 7.9%
VAS Score measured with Movement (median) (800 mg, ITT, 36-Hour): 3.5
VAS Score measured with Movement (median) (800 mg, ITT, 39-Hour): 3.7
VAS Score measured with Movement, % Reduction vs Placebo (800 mg, ITT, 39-Hour): -5.7%
VAS Score measured with Movement (median) (800 mg, ITT, 42-Hour): 3.3
VAS Score measured with Movement, % Reduction vs Placebo (800 mg, ITT, 42-Hour): 2.9%
VAS Score measured with Movement (median) (800 mg, ITT, 45-Hour): 2.7
VAS Score measured with Movement (median) (800 mg, ITT, 48-Hour): 2.1
VAS Score measured with Movement, % Reduction vs Placebo (800 mg, ITT, 48-Hour): 8.7%
